How the values were obtained:
[1] = test system: NCI-H292 lung cancer cells; experiment: FDA drug screening, complete media vs cholesterol-free media without statin (TABLE 1); format: cell-based, human
[2] = test system: NCI-H292 lung cancer cells; experiment: FDA drug screening, complete media vs cholesterol-free media with simvastatin (TABLE 2); format: cell-based, human; settings: for Cholesterol-free media + simvastatin (0.04 μM) / Complete Media: NCI-H292 cells
[3] = NCI-H292 cells in cholesterol-free media without statin
[4] = NCI-H292 cells in complete media
[5] = FDA drug library screen, cholesterol-free media with simvastatin 0.04 μM
[6] = FDA drug library screen, complete media
[7] = complete media vs cholesterol-free media + simvastatin (0.04 μM), >0 enhanced anti-cancer activity, about 0 neutral, <0 antagonist
[8] = Complete minus Cholesterol-free, […]
[9] = NCI-H292 cells, cholesterol-free media without statin, FDA drug library screen
[10] = NCI-H292 cells, complete media, FDA drug library screen
[11] = FDA library drug in cholesterol-free media with simvastatin 0.04 μM
[12] = FDA library drug in complete media
[13] = complete media vs cholesterol-free media + simvastatin (0.04 μM), […]
[14] = NCI-H292 cells, cholesterol-free media without statin
[15] = cholesterol-free media with simvastatin 0.04 μM, FDA drug library screen (TABLE 2)
[16] = complete media, FDA drug library screen (TABLE 2)
[17] = Complete minus Cholesterol-free, greater than 0 enhanced anti-cancer activity, about 0 neutral, below 0 antagonist
[18] = NCI-H292 cells, FDA drug library screen, cholesterol-free media without statin
[19] = NCI-H292 cells, FDA drug library screen, complete media
[20] = drug in cholesterol-free media with simvastatin 0.04 μM
[21] = Complete minus Cholesterol-free, >0 enhanced anti-cancer activity, about 0 neutral, <0 antagonist
[22] = complete media minus cholesterol-free media + simvastatin, >0 enhanced anti-cancer activity, about 0 neutral, <0 antagonist
[23] = complete media minus cholesterol-free media + simvastatin (0.04 μM), >0 enhanced anti-cancer activity, about 0 neutral, <0 antagonist

CC12CCC(CC1=O)C2(C)C (stereo not drawn) [Camphor]
Difference ([1]; Complete minus Cholesterol-free, greater than 0 enhanced anti-cancer activity, about 0 neutral, below 0 antagonists): −0.48
Cholesterol-free [1, 3]: 1.372
Complete [1, 4]: 0.8909
Cholesterol-free media + simvastatin (0.04 μM) [2, 5]: 1.13
Complete Media [2, 6]: 0.9969
Difference [2, 7]: −0.13

CC[C@@]1(O)C(=O)OCc2c1cc1n(c2=O)Cc2cc3ccccc3nc2-1 [Camptothecin]
Difference [1, 8]: −0.01
Cholesterol-free [1, 9]: 0.0145
Complete [1, 10]: 0.005875
Cholesterol-free media + simvastatin (0.04 μM) [2, 5]: −0.11
Complete Media [2, 6]: 0.07415
Difference ([2]; complete media minus cholesterol-free media + simvastatin, […]): 0.18

Cc1ccc([C@@H]2O[C@H](CO)[C@@H](O)[C@H](O)[C@H]2O)cc1Cc1ccc(-c2ccc(F)cc2)s1.O [Canagliflozin (hemihydrate)]
Difference [1, 8]: −0.51
Cholesterol-free [1, 3]: 1.347
Complete [1, 4]: 0.8359
Cholesterol-free media + simvastatin (0.04 μM) [2, 11]: 1.34
Complete Media [2, 12]: 0.8924
Difference [2, 13]: −0.45

Cc1ccc([C@@H]2O[C@H](CO)[C@@H](O)[C@H](O)[C@H]2O)cc1Cc1ccc(-c2ccc(F)cc2)s1 [Canagliflozin]
Cholesterol-free [1, 14]: 1.159
Complete ([1]; NCI-H292 cells, complete media): 0.8206
Difference ([1]; complete vs cholesterol-free media, […]): −0.34
Cholesterol-free media + simvastatin (0.04 μM) [2, 15]: 1.109
Complete Media [2, 16]: 1.104
Difference ([2]; complete media minus cholesterol-free media + simvastatin (0.04 μM), […]): −0.01

CCOc1nc2cccc(C(=O)OC(C)OC(=O)OC3CCCCC3)c2n1Cc1ccc(-c2ccccc2-c2nnn[nH]2)cc1 (stereo not drawn) [Candesartan Cilexetil]
Difference [1, 17]: −0.16
Cholesterol-free [1, 18]: 1.093
Complete [1, 19]: 0.9304
Cholesterol-free media + simvastatin (0.04 μM) [2, 20]: 1.18
Complete Media ([2]; drug in complete media): 0.9738
Difference [2, 7]: −0.21

CCOc1nc2cccc(C(=O)O)c2n1Cc1ccc(-c2ccccc2-c2nnn[nH]2)cc1 [Candesartan]
Difference [1, 21]: 0.02
Cholesterol-free [1, 9]: 0.9494
Complete [1, 10]: 0.9741
Cholesterol-free media + simvastatin (0.04 μM) [2, 20]: 1.101
Complete Media ([2]; drug in complete media): 0.8684
Difference [2, 7]: −0.23

CSCCNc1nc(SCCC(F)(F)F)nc2c1ncn2[C@@H]1O[C@H](COP(=O)([O-])OP(=O)([O-])C(Cl)(Cl)P(=O)([O-])[O-])[C@@H](O)[C@H]1O.[Na+].[Na+].[Na+].[Na+] [Cangrelor (tetrasodium)]
Difference [1, 8]: −0.14
Cholesterol-free [1, 18]: 1.189
Complete [1, 19]: 1.05
Cholesterol-free media + simvastatin (0.04 μM) [2, 5]: 1.209
Complete Media [2, 6]: 1.098
Difference [2, 13]: −0.11

C[C@]12CCC(=O)C=C1C=C[C@@H]1[C@@H]2CC[C@@]2(C)[C@H]1CC[C@@]21CCC(=O)O1 [Canrenone]
Difference [1, 21]: −0.20
Cholesterol-free [1, 14]: 1.047
Complete ([1]; NCI-H292 cells, complete media): 0.8458
Cholesterol-free media + simvastatin (0.04 μM) [2, 5]: 1.098
Complete Media [2, 6]: 1.452
Difference [2, 22]: 0.35

CCCCCOC(=O)Nc1nc(=O)n([C@@H]2O[C@H](C)[C@@H](O)[C@H]2O)cc1F [Capecitabine]
Difference [1, 21]: −0.20
Cholesterol-free [1, 14]: 1.138
Complete ([1]; NCI-H292 cells, complete media): 0.9364
Cholesterol-free media + simvastatin (0.04 μM) [2, 11]: 1.236
Complete Media [2, 12]: 0.648
Difference [2, 7]: −0.59

COc1cc(CNC(=O)CCCC/C=C/C(C)C)ccc1O [Capsaicin]
Difference [1, 21]: −0.28
Cholesterol-free [1, 14]: 1.197
Complete ([1]; NCI-H292 cells, complete media): 0.9142
Cholesterol-free media + simvastatin (0.04 μM) [2, 15]: 1.403
Complete Media [2, 16]: 1.38
Difference [2, 23]: −0.02

C[C@H](CS)C(=O)N1CCC[C@H]1C(=O)O [Captopril]
Difference [1, 21]: −0.19
Cholesterol-free [1, 14]: 0.897
Complete ([1]; NCI-H292 cells, complete media): 0.704
Cholesterol-free media + simvastatin (0.04 μM) [2, 15]: 0.8354
Complete Media [2, 16]: 0.832
Difference [2, 23]: 0.00

NC(=O)N1c2ccccc2C=Cc2ccccc21 [Carbamazepine]
Cholesterol-free [1, 14]: 1.302
Complete ([1]; NCI-H292 cells, complete media): 0.9337
Difference ([1]; complete vs cholesterol-free media, greater than 0 enhanced anti-cancer activity, about 0 neutral, below 0 antagonists): −0.37
Cholesterol-free media + simvastatin (0.04 μM) [2, 20]: 1.226
Complete Media ([2]; drug in complete media): 0.9955
Difference [2, 7]: −0.23

CN1CC(O)C2=C/C(=N/NC(N)=O)C(=O)C=C21 (stereo not drawn) [Carbazochrome]
Difference [1, 17]: −0.14
Cholesterol-free [1, 18]: 1.112
Complete [1, 19]: 0.9668
Cholesterol-free media + simvastatin (0.04 μM) [2, 5]: 1.082
Complete Media [2, 6]: 1.238
Difference [2, 22]: 0.16

CC1(C)[C@@H](OC(=O)CCC(=O)O)CC[C@]2(C)[C@H]3C(=O)C=C4[C@@H]5C[C@@](C)(C(=O)O)CC[C@]5(C)CC[C@@]4(C)[C@]3(C)CC[C@@H]12 [Carbenoxolone (disodium)]
Difference [1, 21]: −0.05
Cholesterol-free [1, 9]: 1.149
Complete [1, 10]: 1.095
Cholesterol-free media + simvastatin (0.04 μM) [2, 15]: 0.9745
Complete Media [2, 16]: 0.9823
Difference [2, 23]: 0.01

From patent US20250144067A1, “PERSONALIZED STARVATION THERAPY FOR CANCER” (Faeth Therapeutics, Inc., priority 2021, published 2025)
